The text below walks through data of patent US20240270809A1, “ORAL GLP RECEPTOR AGONISTS” (priority 2020, published 2024).

Positions of bridges follow the written chain, without caps; N, C: chain ends. Non-standard residues stand in square brackets, D forms with d. Residues, ends and D or L forms follow the SMILES beside them. *: point of attachment. Malonyl(2,2-Me2,histaminyl) = CC(C)(C(=O)NCCc1cnc[nH]1)C(=O)*; Ala(1H-tetrazol-5-yl) = N[C@@H](Cc1nnn[nH]1)C(=O)O; Nle = CCCC[C@H](N)C(=O)O; Aib = CC(C)(N)C(=O)O

The target of one data set is T1, mouse GLP2 receptor (Mus musculus, UniProt Q5IXF8).
T1 construct: expressed in transfected cells; host or cells: HEK cells, transient transfection with GeneJuice
T1 sequence (Q5IXF8 1-512): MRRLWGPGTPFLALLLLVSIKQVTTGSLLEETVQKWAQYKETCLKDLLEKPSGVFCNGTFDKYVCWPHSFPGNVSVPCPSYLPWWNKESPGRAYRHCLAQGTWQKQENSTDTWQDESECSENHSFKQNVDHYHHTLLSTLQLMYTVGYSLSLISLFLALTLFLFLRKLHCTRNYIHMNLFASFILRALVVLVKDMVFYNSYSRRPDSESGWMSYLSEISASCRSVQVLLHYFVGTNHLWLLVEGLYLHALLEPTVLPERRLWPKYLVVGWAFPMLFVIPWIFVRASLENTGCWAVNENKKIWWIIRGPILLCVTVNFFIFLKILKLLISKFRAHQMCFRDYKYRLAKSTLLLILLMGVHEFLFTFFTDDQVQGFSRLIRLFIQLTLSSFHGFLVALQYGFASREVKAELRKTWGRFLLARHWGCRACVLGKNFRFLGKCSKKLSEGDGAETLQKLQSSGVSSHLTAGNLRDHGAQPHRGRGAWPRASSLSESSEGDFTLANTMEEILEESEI
The data set is described as follows: cAMP accumulation assay, functional agonism of mouse GLP2 receptor. Type of data set: cell-based. To be noted: HEK cells transiently transfected with mouse GLP2 receptor, HTRF cAMP; for Emax: HEK293, read-out: Mouse GLP-2R agonist cAMP Emax; for EC50: read-out: Mouse GLP-2R agonist cAMP pEC50 (converted). The procedure, abridged:
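pEC50 values come from four-parameter fits of HTRF cAMP signal, read after lysis and 1 h RT incubation. Compounds were incubated 45 min at 37 °C with previously frozen, transiently transfected HEK cells (8000/well) in HBSS containing 0.5 mM IBMX.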

The next data set addresses T2, human GLP2 receptor (Homo sapiens, UniProt O95838).
T2 construct: expressed in transfected cells; host or cells: HEK cells, BacMam virus transduction
T2 sequence (O95838 1-553): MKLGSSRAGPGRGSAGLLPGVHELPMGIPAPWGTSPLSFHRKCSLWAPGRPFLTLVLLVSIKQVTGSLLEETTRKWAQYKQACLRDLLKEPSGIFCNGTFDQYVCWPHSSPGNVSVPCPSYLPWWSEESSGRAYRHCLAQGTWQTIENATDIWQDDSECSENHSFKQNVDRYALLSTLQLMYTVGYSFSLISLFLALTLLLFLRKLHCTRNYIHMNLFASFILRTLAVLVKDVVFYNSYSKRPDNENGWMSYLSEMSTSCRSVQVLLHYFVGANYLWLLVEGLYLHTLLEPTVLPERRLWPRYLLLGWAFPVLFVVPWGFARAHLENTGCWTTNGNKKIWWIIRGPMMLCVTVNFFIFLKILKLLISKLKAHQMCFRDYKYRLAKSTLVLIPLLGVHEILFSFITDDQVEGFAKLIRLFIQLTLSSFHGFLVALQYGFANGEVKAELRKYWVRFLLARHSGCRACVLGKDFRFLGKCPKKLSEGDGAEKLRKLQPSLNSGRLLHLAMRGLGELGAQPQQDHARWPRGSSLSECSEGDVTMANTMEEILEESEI
The data set is described as follows: cAMP accumulation assay, functional agonism of human GLP2 receptor. Type of data set: cell-based. As to conditions: HEK cells infected with human GLP2 receptor BacMam virus, HTRF cAMP; for Emax: HEK293, read-out: Human GLP-2R agonist cAMP Emax; for EC50: read-out: Human GLP-2R agonist cAMP pEC50 (converted). The method, boiled down: (§1)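 cAMP read by HTRF detection reagents in lysis buffer following 45 min agonist exposure at 37 °C. Cells: frozen HEK transduced for 24 h with GLP1 or GLP2 receptor BacMam, suspended in HBSS plus 0.5 mM IBMX.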

Another data set has as its target T3, mouse GLP1 receptor (Mus musculus, UniProt O35659).
T3 construct: expressed in transfected cells; host or cells: HEK cells, transient transfection with GeneJuice
T3 sequence (O35659 22-463): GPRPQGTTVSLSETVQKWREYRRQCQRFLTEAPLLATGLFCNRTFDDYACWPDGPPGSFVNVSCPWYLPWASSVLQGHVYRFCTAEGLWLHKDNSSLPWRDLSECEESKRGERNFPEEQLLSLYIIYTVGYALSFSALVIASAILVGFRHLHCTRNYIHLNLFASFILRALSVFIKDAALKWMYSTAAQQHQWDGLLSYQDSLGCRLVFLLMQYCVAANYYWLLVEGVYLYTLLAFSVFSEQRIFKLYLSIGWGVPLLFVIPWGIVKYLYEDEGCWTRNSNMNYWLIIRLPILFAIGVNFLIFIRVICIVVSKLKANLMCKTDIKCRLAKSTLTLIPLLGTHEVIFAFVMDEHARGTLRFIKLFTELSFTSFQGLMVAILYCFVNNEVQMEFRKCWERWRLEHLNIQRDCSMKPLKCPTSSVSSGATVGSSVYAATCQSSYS
The data set is described as follows: cAMP accumulation assay, functional agonism of mouse GLP1 receptor. The format is cell-based. To be noted: HEK cells transiently transfected with mouse GLP1 receptor, HTRF cAMP; for Emax: HEK293, read-out: Mouse GLP-1R agonist cAMP Emax; for EC50: read-out: Mouse GLP-1R agonist cAMP pEC50 (converted).

Data set [1] can be described thus: Stability of peptides in Fasted-State Simulated Intestinal Fluid (FaSSIF). To be noted: FaSSIF with 10 mg/ml pancreatin, 37° C.; for remaining at 0.25 h: FaSSIF pH 6.5 with 10 mg/ml pancreatin, t = 15 mins. The format is in vitro ADME.
Another data set addresses T4, human GLP1 receptor (Homo sapiens, UniProt P43220).
T4 construct: expressed in transfected cells; host or cells: HEK cells, BacMam virus transduction
The data set is described as follows: cAMP accumulation assay, functional agonism of human GLP1 receptor. Type of data set: cell-based. To be noted: HEK cells infected with human GLP1 receptor BacMam virus, HTRF cAMP; for Emax: HEK293, read-out: Human GLP-1R agonist cAMP Emax; for EC50: read-out: Human GLP-1R agonist cAMP pEC50 (converted). The method, boiled down:
as §1

T4 sequence (P43220 24-463): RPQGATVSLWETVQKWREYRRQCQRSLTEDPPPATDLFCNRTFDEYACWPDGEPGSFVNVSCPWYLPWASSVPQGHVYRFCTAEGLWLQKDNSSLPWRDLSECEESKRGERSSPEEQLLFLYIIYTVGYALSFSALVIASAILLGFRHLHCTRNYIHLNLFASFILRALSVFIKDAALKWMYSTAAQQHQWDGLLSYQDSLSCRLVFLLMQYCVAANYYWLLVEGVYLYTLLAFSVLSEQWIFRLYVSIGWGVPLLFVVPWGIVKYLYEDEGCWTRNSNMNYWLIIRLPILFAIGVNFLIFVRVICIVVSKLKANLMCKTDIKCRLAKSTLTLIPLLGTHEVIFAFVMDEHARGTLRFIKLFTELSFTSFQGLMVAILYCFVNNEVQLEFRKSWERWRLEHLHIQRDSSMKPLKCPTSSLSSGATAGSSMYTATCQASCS
Description for mouse GLP1 receptor: CAMP production upon agonist stimulation of mouse GLP2 or GLP1 receptors was assessed utilizing HiRange cAMP kit (Cisbio). In brief, HEK cells were transiently transfected for 24 hours with cDNA using GeneJuice Transfection reagent (EMD Millipore) and frozen at −80° C. for later use in the assay. […] Cells were prepared in the assay buffer (HBSS (Lonza) supplemented with 0.5 mM IBMX (Tocris)). After 45 min incubation at 37° C., the reaction was stopped by addition of the HTRF detection reagents in the lysis buffer provided in the kit. Following 1-hour incubation at RT, plates were read on Pherastar FS (BMG Labtech, Inc.) using standard HTRF settings. Dotmatics Studies software was used for calculation of pEC50 values by fitting data to a four-parameter concentration response curve.

In the case of `CCCC[C@H](NC(=O)[C@H](CCC(=O)O)NC(=O)[C@H](CC(=O)O)NC(=O)[C@H](CO)NC(=O)[C@H](Cc1ccccc1)NC(=O)[C@H](CO)NC(=O)CNC(=O)[C@H](CC(=O)O)NC(=O)C(C)(C)NC(=O)[C@@H](N)Cc1c[nH]cn1)C(=O)N[C@H](Cc1ccccc1)C(=O)N[C@H]1CCC(=O)NCCCC[C@@H](C(=O)N[C@@H](CCCCN)C(=O)N[C@@H](C)C(=O)N[C@@H](C)C(=O)N[C@@H](CCCCN)C(=O)N[C@@H](CC(=O)O)C(=O)N[C@@H](Cc2ccccc2)C(=O)N[C@H](C(=O)N[C@@H](CC(N)=O)C(=O)N[C@@H](Cc2c[nH]c3ccccc23)C(=O)N[C@@H](CC(C)C)C(=O)N[C@H](C(=O)N[C@@H](CCC(N)=O)C(=O)N[C@H](C(=O)N[C@@H](CCCCN)C(=O)N[C@H](C(=O)N[C@H](C(=O)N[C@@H](CC(=O)O)C(N)=O)[C@@H](C)O)[C@@H](C)CC)[C@@H](C)O)[C@@H](C)CC)[C@@H](C)CC)NC(=O)[C@H](CC(=O)O)NC(=O)[C@H](CC(C)C)NC(=O)[C@H]([C@@H](C)CC)NC1=O` [Example 87] (H-H[Aib]DGSFSDE[Nle][dF]EILDKKAAKDFINWLIQTKITD-NH2; lactam 12-16 (inferred); C-terminus assumed), the Emax at mouse GLP2 receptor was determined as 99.2%; at human GLP2 receptor, 102%; at mouse GLP1 receptor, 91.4%; at human GLP1 receptor it was 98.7%. The EC50 was 0.00631 nM at mouse GLP2 receptor, 2.51 pM at human GLP2 receptor, 0.631 nM on mouse GLP1 receptor and 2.51 nM on human GLP1 receptor. The fraction remaining at 0.25 h in data set [1] is 1.7%.
For `CCCC[C@H](NC(=O)[C@H](CCC(=O)O)NC(=O)[C@H](CC(=O)O)NC(=O)[C@H](CO)NC(=O)[C@H](Cc1ccccc1)NC(=O)[C@H](CO)NC(=O)CNC(=O)[C@H](CC(=O)O)NC(=O)C(C)(C)NC(=O)[C@@H](N)Cc1c[nH]cn1)C(=O)N[C@H](Cc1ccccc1)C(=O)N[C@H](C(=O)N[C@H](C(=O)N[C@@H](CC(C)C)C(=O)N[C@@H](CC(=O)O)C(=O)N[C@H]1CCCCNC(=O)CC[C@@H](C(=O)N[C@@H](CC(=O)O)C(=O)N[C@@H](Cc2ccccc2)C(=O)N[C@H](C(=O)N[C@@H](CC(N)=O)C(=O)N[C@@H](Cc2c[nH]c3ccccc23)C(=O)N[C@@H](CC(C)C)C(=O)N[C@H](C(=O)N[C@@H](CCC(N)=O)C(=O)N[C@H]2CCCCNC(=O)CC[C@@H](C(N)=O)NC(=O)[C@H]([C@@H](C)O)NC(=O)[C@H]([C@@H](C)CC)NC(=O)[C@H](CCCCN)NC2=O)[C@@H](C)CC)[C@@H](C)CC)NC(=O)[C@H](C)NC(=O)[C@H](C)NC(=O)[C@H](CCCCN)NC1=O)[C@@H](C)CC)[C@@H](C)O` [Example 113] (H-H[Aib]DGSFSDE[Nle][dF]TILDKKAAEDFINWLIQKKITE-NH2; lactam 16-20, 29-33; C-terminus assumed), the Emax was 99.2% on mouse GLP2 receptor, 101% at human GLP2 receptor, 96.3% at mouse GLP1 receptor and 97% on human GLP1 receptor. In addition, the EC50 is 0.2 nM at mouse GLP2 receptor, 3.16 pM on human GLP2 receptor, 1.58 nM at mouse GLP1 receptor and 2 nM on human GLP1 receptor. Moreover, the amount remaining at 0.25 h in data set [1] was 3.4%.
For `CCCC[C@@H]1NC(=O)[C@H](CCC(=O)O)NC(=O)[C@@H](NC(=O)[C@H](CO)NC(=O)[C@H](Cc2ccccc2)NC(=O)[C@H](CO)NC(=O)CNC(=O)[C@H](Cc2nn[nH]n2)NC(=O)C(C)(C)C(=O)NCCc2c[nH]cn2)CCCCNC(=O)C[C@@H](C(=O)N[C@H](C(=O)N[C@@H](CC(C)C)C(=O)N[C@@H](CC(=O)O)C(=O)N[C@H]2CC(=O)NCCCC[C@@H](C(=O)N[C@@H](CC(=O)O)C(=O)N[C@@H](Cc3ccccc3)C(=O)N[C@H](C(=O)N[C@@H](CC(N)=O)C(=O)N[C@@H](Cc3c[nH]c4ccccc34)C(=O)N[C@@H](CC(C)C)C(=O)N[C@H](C(=O)N[C@@H](CCC(N)=O)C(=O)N[C@H](C(=O)N[C@H]3CCC(=O)NCCCC[C@@H](C(N)=O)NC(=O)[C@H]([C@@H](C)O)NC(=O)[C@H]([C@@H](C)CC)NC3=O)[C@@H](C)O)[C@@H](C)CC)[C@@H](C)CC)NC(=O)[C@H](C)NC(=O)[C@H](C)NC(=O)[C@H](CCCCN)NC2=O)[C@@H](C)CC)NC(=O)[C@@H](Cc2ccccc2)NC1=O` [Example 1] ({Malonyl(2,2-Me2,histaminyl)}-[Ala(1H-tetrazol-5-yl)]GSFSKE[Nle][dF]DILDDKAAKDFINWLIQTEITK-NH2; lactam 6-10, 14-18, 28-31), the Emax stood at 97.7% on mouse GLP2 receptor, 103% on human GLP2 receptor, 91.5% at mouse GLP1 receptor and 90.1% at human GLP1 receptor. Besides, the EC50 on mouse GLP2 receptor was 10 nM; on human GLP2 receptor, 398 pM; at mouse GLP1 receptor, 0.126 nM; on human GLP1 receptor it was 0.794 nM. In addition, in data set [1] (t=30 mins, pH 6.5, 10 mg/ml pancreatin), the fraction remaining at 0.5 h was 5%.
For `CCCC[C@H](NC(=O)[C@H](CCC(=O)O)NC(=O)[C@H](CC(=O)O)NC(=O)[C@H](CO)NC(=O)[C@H](Cc1ccccc1)NC(=O)[C@H](CO)NC(=O)CNC(=O)[C@H](CC(=O)O)NC(=O)C(C)(C)NC(=O)[C@@H](N)Cc1c[nH]cn1)C(=O)N[C@H](Cc1ccccc1)C(=O)N[C@H](C(=O)N[C@H](C(=O)N[C@@H](CC(C)C)C(=O)N[C@@H](CC(=O)O)C(=O)N[C@@H](CC(C)C)C(=O)N[C@@H](CCCCN)C(=O)N[C@@H](C)C(=O)N[C@@H](C)C(=O)N[C@@H](CCCCN)C(=O)N[C@@H](CC(=O)O)C(=O)N[C@@H](Cc1ccccc1)C(=O)N[C@H](C(=O)N[C@@H](CC(N)=O)C(=O)N[C@@H](Cc1c[nH]c2ccccc12)C(=O)N[C@@H](CC(C)C)C(=O)N[C@H](C(=O)N[C@@H](CCC(N)=O)C(=O)N[C@H]1CCCCNC(=O)CC[C@@H](C(N)=O)NC(=O)[C@H]([C@@H](C)O)NC(=O)[C@H]([C@@H](C)CC)NC(=O)[C@H](CCCCN)NC1=O)[C@@H](C)CC)[C@@H](C)CC)[C@@H](C)CC)[C@@H](C)O` [Example 93] (H-H[Aib]DGSFSDE[Nle][dF]TILDLKAAKDFINWLIQKKITE-NH2; lactam 29-33; N-terminus and C-terminus assumed), the Emax turned out to be 98.5% at mouse GLP2 receptor, 98.6% at human GLP2 receptor, 95.5% on mouse GLP1 receptor and 95.3% on human GLP1 receptor. Besides, the EC50 on mouse GLP2 receptor is 0.251 nM; on human GLP2 receptor, 5.01 pM; at mouse GLP1 receptor it was 2.51 nM; on human GLP1 receptor it was 3.98 nM. Moreover, the amount remaining at 0.25 h in data set [1] is 13.5%.
